Format in all cases: biochemical
For one test, the target named is T1, HIV-1 RT (Human immunodeficiency virus type 1 group M subtype B, UniProt P03366).
T1 construct: 4 µl of recombinant HIV-1 RT
Description: HIV-1 reverse transcriptase assay. As to conditions: dATP (3.2 µM) as competing substrate, poly rU.dA primer/template. Here is the method:
[…] In the HSV DNA polymerase assays, the inhibitory effect of adefovir-pp or PMEA-DAPym-pp on herpesvirus DNA polymerase-catalyzed polymerization was also determined in the presence of radiolabeled [^3H]dGTP (1 mCi/ml; 2.8 µM), [^3H]dTTP (1 mCi/ml; 1 µM), or [^3H]dCTP (1 mCi/ml; 2.5 µM) as competing dNTP in the presence of 0.8 µl (5 mM) of the other dNTPs in the reaction mixture as described above. The reaction was started by the addition of 4 µl of recombinant HSV-1 DNA polymerase (kindly provided by M.W. Wathen, at that time at Pfizer, Kalamazoo, MI) or 4 µl of recombinant HIV-1 RT (in 20 mM Tris.HCl, pH 8.0; 1 mM DTT; 0.1 mM EDTA; 0.2 M NaCl; 40% glycerol), and the reaction mixture was incubated for 60 min (HSV-1 DNA polymerase) or 30 min (HIV-1 RT) at 37°C. Then, 1 ml of ice-cold 5% TCA in 0.02 M Na4P2O7.10 H2O was added to terminate the polymerisation reaction, after which the acid-insoluble precipitate (radiolabeled DNA) was captured onto Whatman glass fiber filters (type GF/C; GE Healthcare UK Limited, Buckinghamshire, UK) and further washed with 5% TCA and ethanol to remove free radiolabeled dNTP. Radioactivity was determined in a Perkin Elmer Tri-Carb 2810 TR liquid scintillation counter.

The next test concerns the target T2, HSV DNA polymerase (Human herpesvirus 1, UniProt P04293).
T2 construct: gift of M.W. Wathen (Pfizer, Kalamazoo, MI)
As to the kind of experiment: HSV DNA polymerase assay. As to conditions: for IC50: gapped calf thymus DNA. Here is the method:
The reaction mixture (40 µl) for the HSV-1 DNA polymerase and HIV-1 RT assays contained 4 µl of Premix (200 mM Tris.HCl, pH 7.5; 2 mM DTT; 30 mM MgCl2), 4 µl of BSA (5 mg/ml), 1.6 µl of activated calf thymus DNA (1.25 mg/ml), 0.8 µl of dCTP (5 mM), 0.8 µl of dTTP (5 mM), 0.8 µl of dGTP (5 mM), 2 µl of radiolabeled [^3H]dATP (1 mCi/ml) (3.2 µM), 18 µl of H2O, and 4 µl of adefovir-pp or PMEO-DAPym-pp at different concentrations (i.e., 200, 20, 2, and 0.2 µM). In the HSV DNA polymerase assays, the inhibitory effect of adefovir-pp or PMEA-DAPym-pp on herpesvirus DNA polymerase-catalyzed polymerization was also determined in the presence of radiolabeled [^3H]dGTP (1 mCi/ml; 2.8 µM), [^3H]dTTP (1 mCi/ml; 1 µM), or [^3H]dCTP (1 mCi/ml; 2.5 µM) as competing dNTP in the presence of 0.8 µl (5 mM) of the other dNTPs in the reaction mixture as described above. The reaction was started by the addition of 4 µl of recombinant HSV-1 DNA polymerase (kindly provided by M.W. Wathen, at that time at Pfizer, Kalamazoo, MI) or 4 µl of recombinant HIV-1 RT (in 20 mM Tris.HCl, pH 8.0; 1 mM DTT; 0.1 mM EDTA; 0.2 M NaCl; 40% glycerol), and the reaction mixture was incubated for 60 min (HSV-1 DNA polymerase) or 30 min (HIV-1 RT) at 37°C. Then, 1 ml of ice-cold 5% TCA in 0.02 M Na4P2O7.10 H2O was added to terminate the polymerisation reaction, after which the acid-insoluble precipitate (radiolabeled DNA) was captured onto Whatman glass fiber filters (type GF/C; GE Healthcare UK Limited, Buckinghamshire, UK) and further washed with 5% TCA and ethanol to remove free radiolabeled dNTP. Radioactivity was determined in a Perkin Elmer Tri-Carb 2810 TR liquid scintillation counter.

The target in test [1] is mutant HIV-1 RT enzymes (K65R and K70R). Description: Mutant HIV-1 RT enzyme inhibition. The note with it: K65R and K70R mutant HIV-1 RT, data not shown. Here is the method: In all assay systems the drugs were administered prior to, or at the time of, virus infection which is relevant from a microbicidal application viewpoint, for which the drugs are preferentially already present at the time of infection. However, it might well be possible that these drugs are also effective when exposed shortly after virus infection given the DNA polymerase/HIV reverse transcriptase as being one of the intracellular targets of PMEO-DAPym. […] Thus, PMEO-DAPym may have a rather high genetic barrier suppressing a wide variety of clinical HSV and HIV-1 clade isolates, including clinically relevant mutant viruses.

This note sets out measurements from article PMC3723632, “A Multi-targeted Drug Candidate with Dual Anti-HIV and Anti-HSV Activity” (PLoS Pathogens, 2013).

Usually IC50 stands for the midpoint of a concentration-inhibition curve. Read a low IC50 as greater potency.

The structures appear in SMILES notation. In brackets after ≈: the same amount, converted by molar mass.

T2 sequence (P04293 whole entry): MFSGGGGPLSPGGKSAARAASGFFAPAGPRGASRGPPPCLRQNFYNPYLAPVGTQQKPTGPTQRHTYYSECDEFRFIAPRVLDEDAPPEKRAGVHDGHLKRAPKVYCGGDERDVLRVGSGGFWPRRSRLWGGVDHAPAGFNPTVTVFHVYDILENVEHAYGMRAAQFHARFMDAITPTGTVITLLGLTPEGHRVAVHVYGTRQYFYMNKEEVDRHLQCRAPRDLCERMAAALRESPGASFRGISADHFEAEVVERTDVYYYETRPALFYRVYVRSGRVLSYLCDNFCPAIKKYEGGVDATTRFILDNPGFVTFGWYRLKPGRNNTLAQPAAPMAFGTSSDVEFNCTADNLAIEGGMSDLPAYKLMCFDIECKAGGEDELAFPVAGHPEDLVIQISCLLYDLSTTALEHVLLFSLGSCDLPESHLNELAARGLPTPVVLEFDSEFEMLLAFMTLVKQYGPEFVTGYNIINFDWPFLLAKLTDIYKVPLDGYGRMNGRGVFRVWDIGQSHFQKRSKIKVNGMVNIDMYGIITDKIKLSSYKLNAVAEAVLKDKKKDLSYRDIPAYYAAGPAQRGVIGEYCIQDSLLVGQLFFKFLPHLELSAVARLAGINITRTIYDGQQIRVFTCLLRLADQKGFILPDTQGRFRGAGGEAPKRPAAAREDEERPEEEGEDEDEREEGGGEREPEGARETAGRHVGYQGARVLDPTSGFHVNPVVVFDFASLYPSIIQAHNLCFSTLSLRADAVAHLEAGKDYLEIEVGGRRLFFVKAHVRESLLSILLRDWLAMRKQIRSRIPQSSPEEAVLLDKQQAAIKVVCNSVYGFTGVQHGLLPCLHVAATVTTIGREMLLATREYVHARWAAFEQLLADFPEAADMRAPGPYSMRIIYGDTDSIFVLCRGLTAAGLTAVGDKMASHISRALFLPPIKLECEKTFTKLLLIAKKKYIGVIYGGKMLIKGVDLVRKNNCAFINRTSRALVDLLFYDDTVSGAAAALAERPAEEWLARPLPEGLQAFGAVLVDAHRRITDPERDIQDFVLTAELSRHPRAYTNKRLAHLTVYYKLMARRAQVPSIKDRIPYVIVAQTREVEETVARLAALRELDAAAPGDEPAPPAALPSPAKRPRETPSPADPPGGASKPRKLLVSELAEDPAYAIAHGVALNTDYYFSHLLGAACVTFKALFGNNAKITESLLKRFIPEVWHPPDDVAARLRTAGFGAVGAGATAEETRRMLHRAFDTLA

Turning to `Nc1cc(OCCOCP(=O)(O)OP(=O)(O)OP(=O)(O)O)nc(N)n1` [PMEO-DAPym-pp], the IC50 worked out at 0.19 ± 0.21 µg/mL (≈ 0.448 µM) on HIV-1 RT; 0.43 µg/mL (≈ 1.01 µM) at HIV-1 RT (listed as PMEO-DAPym-diphosphate); 0.52 ± 0.03 µg/mL (≈ 1.23 µM) on HSV DNA polymerase ([3H]dATP as competing substrate); 5.2 ± 4.8 µg/mL (≈ 12.3 µM) on HSV DNA polymerase ([3H]dCTP as competing substrate); 3.1 ± 1.0 µg/mL (≈ 7.31 µM) at HSV DNA polymerase ([3H]dGTP as competing substrate); 5.2 ± 0.3 µg/mL (≈ 12.3 µM) at HSV DNA polymerase ([3H]dTTP as competing substrate). Moreover, the concentration for half-maximal inhibition (IC50) entry in test [1] was “submicromolar range”. The “IC50, incorporation of other [3H]dNTPs” value against HSV DNA polymerase (dCTP, dGTP, dTTP, range) lay within 3.1 to 5.2 µg/mL.
